≈ marks a conversion by molar mass, not a printed value.
Assays:
[1] = target: T1, PA-I galactophilic lectin (Pseudomonas aeruginosa (strain ATCC 15692 / PAO1 / 1C / PRS 101 / LMG12228), UniProt Q05097); experiment: Binding affinity to Pseudomonas aeruginosa LecA assessed as dissociation constant by isothermal titration calorimetry
T1 sequence (Q05097 whole entry): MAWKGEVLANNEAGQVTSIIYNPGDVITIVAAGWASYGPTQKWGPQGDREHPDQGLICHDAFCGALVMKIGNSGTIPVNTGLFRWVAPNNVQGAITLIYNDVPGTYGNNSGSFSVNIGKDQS

[2] = target: Type 1 fimbrin D-mannose specific adhesin (Escherichia coli K-12) (UniProt P08191); experiment: Relative inhibitory potency, ratio of methyl alpha-D-mannose Kd to compound Kd for binding affinity to C-terminal His-tagged truncated Escherichia coli FimH by SPR analysis; conditions: K12
Type 1 fimbrin D-mannose specific adhesin (Escherichia coli K-12), sequence (P08191 whole entry, the tested form may be a part): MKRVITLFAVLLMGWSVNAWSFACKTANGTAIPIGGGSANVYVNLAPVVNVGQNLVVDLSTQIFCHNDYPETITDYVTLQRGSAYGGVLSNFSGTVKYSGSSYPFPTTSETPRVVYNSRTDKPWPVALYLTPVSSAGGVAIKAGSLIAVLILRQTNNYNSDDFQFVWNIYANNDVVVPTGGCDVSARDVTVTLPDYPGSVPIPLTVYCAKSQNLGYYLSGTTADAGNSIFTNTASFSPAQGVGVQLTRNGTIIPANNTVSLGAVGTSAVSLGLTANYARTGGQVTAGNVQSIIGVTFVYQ

[3] = target: T2, Fucose-binding lectin PA-IIL (Pseudomonas aeruginosa (strain ATCC 15692 / DSM 22644 / CIP 104116 / JCM14847 / LMG 12228 / 1C / PRS 101 / PAO1), UniProt Q9HYN5); experiment: Binding affinity to Pseudomonas aeruginosa PAO1 LecB assessed as dissociation constant by isothermal titration calorimetry
Target sequence in this assay (Q9HYN5 whole entry): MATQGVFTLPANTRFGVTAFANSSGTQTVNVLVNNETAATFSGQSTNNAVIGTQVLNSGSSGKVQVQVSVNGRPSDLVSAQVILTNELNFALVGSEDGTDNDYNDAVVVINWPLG

[4] = target: T2, Fucose-binding lectin PA-IIL; experiment: Inhibition of Pseudomonas aeruginosa PA14 LecB incubated for 22 to 24 hrs by fluorescence polarization based competitive binding analysis
Target sequence in this assay (Q9HYN5 1-115): as the sequence (Q9HYN5 whole entry) above

[5] = target: T2, Fucose-binding lectin PA-IIL; experiment: Binding affinity to Pseudomonas aeruginosa PA14 LecB assessed as dissociation constant by isothermal titration calorimetry
Target sequence in this assay (Q9HYN5 1-115): as the sequence (Q9HYN5 whole entry) above

[6] = tested on: Pseudomonas aeruginosa; experiment: Antibiofilm activity against Pseudomonas aeruginosa PA14 measured after 48 hrs by confocal laser scanning microscope analysis relative to control; assay type: functional
[7] = target: Type 1 fimbrin D-mannose specific adhesin (Escherichia coli K-12) (UniProt P08191); experiment: Relative inhibitory potency, ratio of methyl alpha-D-mannose Kd to compound Kd for binding affinity to Escherichia coli FimH by ELISA assay; conditions: K12
[8] = tested on: Staphylococcus aureus; experiment: Potentiation of vancomycin-induced antibacterial activity against methicillin resistant Staphylococcus aureus Mu50 pretreated with compound followed by vancomycin addition; assay type: functional, organism-based
[9] = tested on: Staphylococcus aureus; experiment: Potentiation of vancomycin-induced antibacterial activity against methicillin resistant Staphylococcus aureus Mu50 in presence of vancomycin; assay type: functional, organism-based
[10] = tested on: Mycolicibacterium smegmatis; experiment: Antimicrobial activity against Mycobacterium smegmatis MC2 155 assessed as planktonic growth inhibition measured after 48 hrs by microplate reader analysis; assay type: functional
[11] = tested on: Mycolicibacterium smegmatis; experiment: Antibiofilm activity against Mycobacterium smegmatis MC2 155 assessed as […] measured after 48 hrs by crystal violet staining based analysis; assay type: functional
[12] = target: Type 1 fimbrin D-mannose specific adhesin (Escherichia coli K-12) (UniProt P08191); experiment: Inhibition of Escherichia coli UTI89 FimH by hemagglutination assay
[13] = tested on: Staphylococcus aureus; experiment: Antibiofilm activity against methicillin-sensitive Staphylococcus aureus UAMS-1 measured after 22 hrs by crystal violet staining based assay; assay type: functional; conditions: for MIC50: Staphylococcus aureus, UAMS-1
[14] = tested on: Streptococcus agalactiae; experiment: Antibiofilm activity against Streptococcus agalactiae GRS90; assay type: functional; conditions: dose 128 µg/ml; time 22 hrs
[15] = tested on: Streptococcus agalactiae; experiment: Antibiofilm activity against Streptococcus agalactiae GB2; assay type: functional
[16] = target: T1, PA-I galactophilic lectin; experiment: Inhibition of Pseudomonas aeruginosa LecA incubated for 4 to 6 hrs by fluorescence polarization based competitive binding analysis
[17] = Binding affinity to Lactobacillus reuteri Glucosyltransferase assessed as dissociation constant by SPR analysis; parameters: species or system Limosilactobacillus reuteri

In the case of `O=C(O)/C=C(\C[C@@H]1O[C@H](CO)[C@H](O)[C@H](O)[C@H]1O)c1ccccc1`, the Kd [1] is reported as 37 µM.
Work on `Cc1cc(=O)oc2ccc(O[C@H]3O[C@H](CO)[C@@H](O)[C@H](O)[C@@H]3O)cc12` yielded a Ratio [2] of 380.
In the case of `Cc1cc(C)c(S(=O)(=O)NC[C@H]2O[C@@H](C)[C@@H](O)[C@@H](O)[C@@H]2O)c(C)c1`, the Kd [3] is reported as 1.27 µM, the IC50 [4] is reported as 0.34 µM and the Kd [5] is reported as 0.31 µM. For the same compound, the Activity [6] was 80%.
`CCOc1c(Nc2ccc(O[C@H]3O[C@H](CO)[C@@H](O)[C@H](O)[C@@H]3O)c(Cl)c2)c(=O)c1=O` showed a Ratio [7] of 6900.
With `O=C(NC[C@]1(O)CO[C@H](CN2C(=O)c3ccccc3C2=O)[C@H]1O)c1ccccc1Cl` the EC50 [8] was 0.26 µM and the EC50 [9] was 1.27 µM.
In the case of `C[C@H]1O[C@H](O[C@H]2O[C@H](CO)[C@@H](O)[C@H](O)[C@H]2O)[C@H](O)[C@@H](O)[C@@H]1O`, the MIC [10] is reported as greater than 500 µM and the MBIC [11] is reported as 100 µM.
Work on `CNC(=O)c1cccc(-c2ccc(O[C@H]3O[C@H](CO)[C@@H](O)[C@H](O)[C@@H]3O)c(C(F)(F)F)c2)c1` yielded an EC>90 [12] of 32 nM.
Compound `[N-]=[N+]=NC[C@H]1O[C@H](O[C@H]2O[C@H](CO)[C@@H](O)[C@H](O)[C@H]2O)[C@H](O)[C@@H](O)[C@@H]1O` has an MIC [10] greater than 500 µM and an MBIC [11] of 50 µM.
Compound `OC[C@H]1O[C@H](O[C@@H]2C[C@@H](O)[C@H](O)[C@@H](CO)O2)[C@H](O)[C@@H](O)[C@@H]1O` has an MIC [10] greater than 500 µM and an MBIC [11] of 50 µM.
With `OC[C@H]1O[C@H](O[C@H]2O[C@H](CF)[C@@H](O)[C@H](O)[C@H]2O)[C@H](O)[C@@H](O)[C@@H]1O` the MIC [10] was greater than 500 µM and the MBIC [11] was 100 µM.
With `C[C@@H]1O[C@@H](Oc2c(O)cc3c(=O)oc4c(O)c(O)cc5c(=O)oc2c3c45)[C@H](O)[C@H](O)[C@H]1O` the MBIC50 [13] was 64 µg/mL, the MBIC90 [13] was 128 µg/mL and the MIC50 [13] was greater than 512 µg/mL.
Compound `O=c1oc2c(O[C@@H]3OC[C@@H](O)[C@H](O)[C@H]3O)c(O)cc3c(=O)oc4c(O)c(O)cc1c4c23` has an MBIC50 [13] of 64 µg/mL, an MBIC90 [13] greater than 512 µg/mL and an MIC50 [13] of 32 µg/mL (≈ 73.7 µM). The MBIC50 [14] was 512 µg/mL and the MBIC50 [15] was 512 µg/mL.
Compound `C[C@@H]1O[C@H](CNC(=O)/C=C/c2ccccc2)[C@@H](O)[C@H](O)[C@@H]1O` has a Kd [3] of 3.09 µM, an IC50 [4] of 2.5 µM and a Kd [5] of 2.59 µM.
For `COc1ccc(/C=N/NC(=O)c2ccc(O[C@@H]3O[C@H](CO)[C@H](O)[C@H](O)[C@H]3O)cc2)cc1`, the Kd [1] was 5.6 µM and the IC50 [16] was 55.5 µM.
With `O=c1oc2c(O)c(O)cc3c(=O)oc4c(O)c(O)cc1c4c23` [ELLAGIC ACID] the MBIC50 [13] was 128 µg/mL, the MBIC90 [13] was greater than 512 µg/mL and the MIC50 [13] was greater than 512 µg/mL.
In the case of `CNC(=O)c1cccc(-c2ccc(O[C@H]3O[C@H](CO)[C@@H](O)[C@H](O)[C@@H]3O)cc2)c1`, the EC>90 [12] is reported as 500 nM.
Compound `O=c1[nH]ccc2ccc(-c3ccc(O[C@H]4O[C@H](CO)[C@@H](O)[C@H](O)[C@@H]4O)cc3)cc12` has an EC>90 [12] of 100 nM.
Compound `Cc1cc(-c2ccc3ccn(C(=O)Nc4cccnc4)c(=O)c3c2)ccc1O[C@H]1O[C@H](CO)[C@@H](O)[C@H](O)[C@@H]1O` has an EC>90 [12] of 62 nM.
In the case of `CNC(=O)c1cccc(-c2ccc(O[C@H]3O[C@H](CO)[C@@H](O)[C@H](O)[C@@H]3O)c(C)c2)c1`, the EC>90 [12] is reported as 62 nM.
For `C[C@H]1[C@H](Oc2ccc(/C=N/NC(=O)C3CCN(C(=O)OC(C)(C)C)CC3)cc2)O[C@H](CO)[C@@H](O)[C@@H]1O`, the Kd [17] was 1600 µM.
`OC[C@H]1O[C@@H](Sc2ccc3ccccc3c2)[C@H](O)[C@@H](O)[C@H]1O` showed an EC50 [9] of 7.97 µM.
`O=c1oc2c(O[C@@H]3OC[C@H](O)[C@H](O)[C@H]3O)c(O)cc3c(=O)oc4c(O)c(O)cc1c4c23` showed an MBIC50 [14] of 512 µg/mL and an MBIC50 [15] of 512 µg/mL.
Compound `OC[C@H]1O[C@H](O[C@H]2O[C@H](CO)[C@@H](O)[C@H](O)[C@H]2O)[C@@H](O)[C@@H](O)[C@@H]1O` has an MIC [10] greater than 500 µM and an MBIC [11] greater than 500 µM.

— ChEMBL document CHEMBL5137057, “Small Carbohydrate Derivatives as Potent Antibiofilm Agents” (J Med Chem, 2022)
